Test results taken from patent US8066985B2, “Reovirus for the treatment of cellular proliferative disorders” (Oncolytics Biotech Inc., priority 1999, dated 2011).
“Also recorded” adds a separate entry of the source.

What was measured:
PKR = experiment: PD98059 effect on PKR phosphorylation; assay type: cell-based
ERK1/2 phosphorylation = experiment: PD98059 effect on ERK1/2 phosphorylation; assay type: cell-based; settings: 50 μM
Excerpt: The PhosphoPlus p44/42 MAP kinase (Thr202/Tyr204) Antibody kit (New England Biolabs) was used for the detection of MAP kinase in cell lysates according to the manufacturer's instructions. Briefly, subconfluent monolayer cultures were lysed with the recommended SDS-containing sample buffer, and subjected to SDS-PAGE, followed by electroblotting onto nitrocellulose paper. The membrane was then probed with the primary antibody (anti-total MAPK or anti-phospho-MAPK), followed by the horseradish peroxidase (HRP)-conjugated secondary antibody as described in the manufacturer's instruction manual.
(§1) H-Ras-transformed cells were grown to 80% confluency and infected with reovirus at an MOI of approximately 10 p.f.u./cell. PD98059 (Calbiochem), dissolved in dimethylsulfoxide (DMSO), was applied to the cells at the same time as the virus (final concentration of PD98059 was 50 μM). The control cells received an equivalent volume of DMSO. The cells were labeled with ^35S-methionine from 12 to 48 hours post-infection. Lysates were then prepared, immunoprecipitated with the polyclonal anti-reovirus serotype 3 serum and analyzed by SDS-PAGE.
As expected, PD98059 had no effect on reovirus-induced PKR phosphorylation in untransformed NIH-3T3 cells (data not shown).

H-Ras-transformed cells = experiment: PD98059 effect on reovirus protein synthesis; assay type: cell-based; settings: 50 μM, MOI approximately 10 p.f.u./cell, label 12 to 48 hours
Experimental: as §1

NIH 3T3 cells = experiment: 2-aminopurine effect on viral protein synthesis; assay type: cell-based, mouse; settings: 5 mM, concurrently with reovirus; label 12 to 48 h postinfection
Experimental: To test this idea, 2-aminopurine was used. […] Accordingly, NIH 3T3 cells were exposed to 5 mM 2-aminopurine concurrently with exposure to reovirus. The cells were labeled with [^35S]methionine from 12 to 48 h postinfection, and lysates were harvested and analyzed by SDS-PAGE.

SMILES | PKR phosphorylation state (PKR; infected H-Ras-transformed cells, 50 μM) | effect on reovirus-induced PKR phosphorylation (PKR; untransformed NIH-3T3 cells) | ERK1/2 phosphorylation (ERK1/2 phosphorylation) | effect on viral protein synthesis (H-Ras-transformed cells) | inhibition of reovirus protein synthesis (H-Ras-transformed cells) | level of viral protein synthesis (NIH 3T3 cells)
COc1cccc(-c2cc(=O)c3ccccc3o2)c1N [PD98059] | remained unphosphorylated | no effect | effectively inhibited ERK1/2 phosphorylation | slight enhancement of viral protein synthesis | did not inhibit reovirus protein synthesis | 
Nc1ncc2[nH]cnc2n1 [2-aminopurine] |  |  |  |  |  | significantly higher level of viral protein synthesis; also recorded: drastic enhancement of reovirus protein synthesis
